The target in the experiment is human ACC2 (Homo sapiens (Human), UniProt O00763). Put plainly: ACC2 assay, spectrophotometric 384 well assay (NADH-linked, coupled lactate dehydrogenase/pyruvate kinase reaction). The class given is biochemical. As to conditions: hACC2 construct lacking the 128 N-terminal amino acids; 25° C., 340 nm over 15 minutes. Summed up: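 Kinetic NADH-linked assay (pyruvate kinase/lactate dehydrogenase coupling) with baculovirus-expressed hACC2 missing its first 128 amino acids. Started with 500 μM ATP and 200 μM each NADH and acetyl-CoA; slope followed 15 min at 25 °C, pH 7.5. No-acetyl-CoA wells define 0%; IC50 by nonlinear regression.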
Sequence of human ACC2 (O00763 129-2458): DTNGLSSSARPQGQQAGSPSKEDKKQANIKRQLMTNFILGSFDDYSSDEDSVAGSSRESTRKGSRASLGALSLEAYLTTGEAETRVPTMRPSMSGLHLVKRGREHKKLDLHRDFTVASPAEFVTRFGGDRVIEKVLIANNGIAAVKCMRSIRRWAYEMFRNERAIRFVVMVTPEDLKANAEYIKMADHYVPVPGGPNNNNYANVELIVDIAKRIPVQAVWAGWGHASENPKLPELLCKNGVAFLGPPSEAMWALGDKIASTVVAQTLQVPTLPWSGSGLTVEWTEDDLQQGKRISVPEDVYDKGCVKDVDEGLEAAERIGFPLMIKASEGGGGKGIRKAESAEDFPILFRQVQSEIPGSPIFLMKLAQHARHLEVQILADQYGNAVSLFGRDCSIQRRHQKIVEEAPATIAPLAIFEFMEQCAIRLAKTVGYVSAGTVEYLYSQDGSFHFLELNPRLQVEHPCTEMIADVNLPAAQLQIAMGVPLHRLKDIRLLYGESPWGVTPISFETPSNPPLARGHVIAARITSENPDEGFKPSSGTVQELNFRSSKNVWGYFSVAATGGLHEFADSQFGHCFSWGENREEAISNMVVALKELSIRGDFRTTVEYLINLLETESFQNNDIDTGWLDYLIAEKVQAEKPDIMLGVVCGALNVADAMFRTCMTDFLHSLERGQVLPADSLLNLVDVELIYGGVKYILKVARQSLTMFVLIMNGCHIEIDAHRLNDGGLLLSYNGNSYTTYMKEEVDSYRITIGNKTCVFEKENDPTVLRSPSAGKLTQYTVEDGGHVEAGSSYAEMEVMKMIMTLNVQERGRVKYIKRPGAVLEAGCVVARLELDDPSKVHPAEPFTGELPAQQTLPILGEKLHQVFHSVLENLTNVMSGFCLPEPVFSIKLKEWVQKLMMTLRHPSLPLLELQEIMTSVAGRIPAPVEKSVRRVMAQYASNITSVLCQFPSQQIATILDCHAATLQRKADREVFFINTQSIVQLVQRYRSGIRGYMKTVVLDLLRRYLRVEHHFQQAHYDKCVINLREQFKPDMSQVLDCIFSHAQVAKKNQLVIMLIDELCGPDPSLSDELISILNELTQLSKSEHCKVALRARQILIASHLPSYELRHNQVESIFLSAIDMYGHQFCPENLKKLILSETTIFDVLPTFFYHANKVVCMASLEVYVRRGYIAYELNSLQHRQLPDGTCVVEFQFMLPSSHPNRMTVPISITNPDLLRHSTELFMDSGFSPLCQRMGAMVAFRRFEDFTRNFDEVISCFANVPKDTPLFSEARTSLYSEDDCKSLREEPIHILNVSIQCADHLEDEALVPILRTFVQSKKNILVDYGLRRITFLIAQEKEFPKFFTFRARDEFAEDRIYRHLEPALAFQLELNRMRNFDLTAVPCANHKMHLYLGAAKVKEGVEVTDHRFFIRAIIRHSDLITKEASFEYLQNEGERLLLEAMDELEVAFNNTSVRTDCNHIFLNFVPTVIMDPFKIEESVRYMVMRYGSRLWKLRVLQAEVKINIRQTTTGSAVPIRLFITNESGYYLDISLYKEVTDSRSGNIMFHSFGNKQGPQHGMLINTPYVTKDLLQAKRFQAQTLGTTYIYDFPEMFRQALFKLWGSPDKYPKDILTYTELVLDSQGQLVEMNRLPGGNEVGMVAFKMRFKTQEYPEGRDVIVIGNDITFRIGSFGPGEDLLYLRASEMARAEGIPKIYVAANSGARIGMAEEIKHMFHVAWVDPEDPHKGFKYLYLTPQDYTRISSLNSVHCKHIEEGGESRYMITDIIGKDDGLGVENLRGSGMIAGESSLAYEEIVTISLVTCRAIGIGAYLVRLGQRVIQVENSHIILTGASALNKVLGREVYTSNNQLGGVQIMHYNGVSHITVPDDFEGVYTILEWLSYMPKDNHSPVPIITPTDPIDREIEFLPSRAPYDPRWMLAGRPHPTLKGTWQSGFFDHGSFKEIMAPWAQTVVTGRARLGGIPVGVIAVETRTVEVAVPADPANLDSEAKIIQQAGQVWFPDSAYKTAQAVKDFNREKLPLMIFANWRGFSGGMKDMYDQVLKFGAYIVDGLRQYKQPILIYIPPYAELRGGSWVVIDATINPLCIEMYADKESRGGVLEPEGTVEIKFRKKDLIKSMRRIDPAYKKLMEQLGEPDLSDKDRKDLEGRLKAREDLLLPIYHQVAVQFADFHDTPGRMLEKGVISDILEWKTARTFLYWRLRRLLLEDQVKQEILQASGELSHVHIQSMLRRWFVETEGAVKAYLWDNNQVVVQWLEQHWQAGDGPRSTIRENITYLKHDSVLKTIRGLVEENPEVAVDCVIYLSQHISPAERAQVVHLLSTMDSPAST
Take `CC(=O)NC(C)Cc1ccc(C#Cc2ccnc(N3CCC(CO)C3)n2)cc1` (stereo not shown) [Example 11.10]: half-maximal inhibition (IC50) was put at 16700 nM. Regarding `CC(=O)NC(C)Cc1ccc(C#Cc2ccnc(N(C)C3CCCCC3)n2)cc1` (stereo not shown) [Example 11.11], the IC50 (usually the concentration that gives 50% inhibition) turned out to be 260 nM. For the compound `CC(=O)NC(C)Cc1ccc(C#Cc2ccnc(N3CCC3)n2)cc1` (stereo not shown) [Example 11.12], the IC50 is 5600 nM. In the case of `CC(=O)NC(C)Cc1ccc(C#Cc2ccnc(NCC3CC3)n2)cc1` (stereo not shown) [Example 11.13], the IC50 came out at 1900 nM. The compound `CCNc1nccc(C#Cc2ccc(CC(C)NC(C)=O)cc2)n1` (stereo not shown) [Example 11.14] returned an IC50 of 13800 nM. On to `CC(=O)NC(C)Cc1ccc(C#Cc2ccnc(N(C)CC(C)C)n2)cc1` (stereo not shown) [Example 11.15], for which the IC50 turned out to be 330 nM. Turning to `CC(=O)NC(C)Cc1ccc(C#Cc2ccnc(N3CCCC(F)C3)n2)cc1` (stereo not shown) [Example 11.16], the IC50 was 680 nM. Turning to `COC(C)CN(C)c1nccc(C#Cc2ccc(CC(C)NC(C)=O)cc2)n1` (stereo not shown) [Example 11.17], it took 1700 nM to reach half-maximal inhibition (IC50). For `CC(=O)NC(C)Cc1ccc(C#Cc2ccnc(N3CCC(C(F)(F)F)CC3)n2)cc1` (stereo not shown) [Example 11.18], half-maximal inhibition (IC50) was put at 510 nM. Under `CC(=O)NC(C)Cc1ccc(C#Cc2ccnc(NC(C)C3CC3)n2)cc1` (stereo not shown) [Example 11.19] stands 5900 nM. In turn, `CC(=O)NC(C)Cc1ccc(C#Cc2ccnc(N(C)CC3CC3)n2)cc1` (stereo not shown) [Example 11.21] gave an IC50 of 250 nM. Under `CC(=O)NC(C)Cc1ccc(C#Cc2ccnc(N3CC(F)(F)C3)n2)cc1` (stereo not shown) [Example 11.22] stands 8100 nM. Under `CC(=O)NC(C)Cc1ccc(C#Cc2ccnc(N(C)CC3CCCCC3)n2)cc1` (stereo not shown) [Example 11.23] stands 370 nM; under `CC(=O)NC(C)Cc1ccc(C#Cc2ccnc(N3CCC(C)(C)C3)n2)cc1` (stereo not shown) [Example 11.24], 390 nM. `CC#CCN(CC(C)C)c1nccc(C#Cc2ccc(CC(C)NC(C)=O)cc2)n1` (stereo not shown) [Example 11.25] showed an IC50 of 1800 nM. In turn, `CC(=O)NC(C)Cc1ccc(C#Cc2ccnc(N3CCC4(CCC4)C3)n2)cc1` (stereo not shown) [Example 11.26] registered an IC50 of 430 nM. Under `CC(=O)NC(C)Cc1ccc(C#Cc2ccnc(N3CCCC(c4ccccc4)C3)n2)cc1` (stereo not shown) [Example 11.27] stands 400 nM; under `CC(=O)NC(C)Cc1ccc(C#Cc2ccnc(N3CCC4(CCCC4)C3)n2)cc1` (stereo not shown) [Example 11.28], 380 nM. Under `CC(=O)NC(C)Cc1ccc(C#Cc2ccnc(N3CCC(C#N)C3)n2)cc1` (stereo not shown) [Example 11.29] stands 4500 nM; under `CC(=O)NC(C)Cc1ccc(C#Cc2ccnc(N(C)C3CCOC3)n2)cc1` (stereo not shown) [Example 11.31], 2000 nM. The compound `CC(=O)NC(C)Cc1ccc(C#Cc2ccnc(N(C)CCC(C)(C)C)n2)cc1` (stereo not shown) [Example 11.32] yielded an IC50 of 350 nM.

Compound `CC(=O)NC(C)Cc1ccc(C#Cc2ccnc(N(C)CC(F)(F)F)n2)cc1` (stereo not shown) [Example 11.33] yielded an IC50 of 680 nM.

`COC1CN(c2nccc(C#Cc3ccc(CC(C)NC(C)=O)cc3)n2)C1` (stereo not shown) [Example 11.34] returned an IC50 of 13900 nM. Under `COCC1CCCN1c1nccc(C#Cc2ccc(CC(C)NC(C)=O)cc2)n1` (stereo not shown) [Example 11.35] stands 2400 nM. Under `CC(=O)NC(C)Cc1ccc(C#Cc2ccnc(N3CCCC(C(F)(F)F)C3)n2)cc1` (stereo not shown) [Example 11.36] stands 690 nM; under `CC(=O)NC(C)Cc1ccc(C#Cc2ccnc(N3CCN(C)CC3)n2)cc1` (stereo not shown) [Example 11.37], 14300 nM. In turn, `CC(=O)NC(C)Cc1ccc(C#Cc2ccnc(N3CCCCC3)n2)cc1` (stereo not shown) [Example 11.38] yielded an IC50 of 430 nM. Consider `CC(=O)NC(C)Cc1ccc(C#Cc2ccnc(N3CCCCC3C)n2)cc1` (stereo not shown) [Example 11.39], for which the midpoint of inhibition, the IC50, lay at 720 nM. Under `CC(=O)NC(C)Cc1ccc(C#Cc2ccnc(N3CCC(c4ccccc4)CC3)n2)cc1` (stereo not shown) [Example 11.40] stands 1100 nM; under `CC(=O)NC(C)Cc1ccc(C#Cc2ccnc(Nc3ccccc3)n2)cc1` (stereo not shown) [Example 11.41], 2700 nM; under `CC(=O)NC(C)Cc1ccc(C#Cc2ccnc(N3CCOCC3)n2)cc1` (stereo not shown) [Example 11.42], 620 nM.

The values above are taken from US8835472B2, “Compounds, pharmaceutical compositions and uses thereof” (Boehringer Ingelheim International GmbH, priority 2010, dated 2014).
